Data reported in patent publication US20240327356A1, “PYRIMIDINE BASED RAS MODULATORS AND USES THEREOF” (QUANTA THERAPEUTICS, INC., priority 2021, published 2024).

Legend:
[1] = biological target: KRAS^G12D-FMe.RAF1^RBDCRD complex (Homo sapiens, UniProt P01116, G12D); experiment: SHG assay: binding to bilayer-tethered KRAS G12D/RAF1 complex; conditions: GppNHp-loaded complex on PS bilayer; compound 0.027-40 μM, monitored over 60 min
Method: Compounds suspected to carry intrinsic SHG activity were tested in the presence of an unlabeled KRAS^G12D-FMe.RAF1^RBDCRD complex to monitor binding. PS bilayer was prepared from PS-enriched small unilamellar vesicles (SUVs) purchased from Biodesy, Inc. The concentrated SUVs were diluted in TBS buffer containing 5 mM CaCl2 and incubated on a glass-bottom 384-well Biodesy Delta™ assay plate to allow bilayer formation. Equimolar amounts of GppNHp-loaded KRAS^G12D-FMe and RAF1^RBDCRD were mixed and incubated together on PS bilayer overnight at 4° C. The following day, untethered protein was removed by washing with assay buffer (20 mM Hepes, pH 7.4, […], 1 mM TCEP, 5 μM GppNHp). The SHG signal produced by bilayer-tethered complex was ready using the Biodesy Delta™ platform where each well was pulsed with an 800 nm laser and the resulting second harmonic signal intensity at 400 nm was collected. Compounds were diluted into the same assay buffer and applied to the complex at a final concentration range spanning 0.027 μM-40 μM and the SHG intensity of each well was monitored at 5 minute intervals over a 60 minute time period.

[2] = tested on: pERK (ERK phospho-T202/Y204) in SW-480 cells; experiment: pERK inhibition in SW-480 cell line (HTRF); format: cell-based; conditions: Homo sapiens, SW480, 1 hour incubation with compound
Method: SW-480 cells were cultured in Leibovitz's L15 (Gibco Cat. No. 11415064), supplemented with 10% fetal bovine serum (Gibco, Cat. No. 1993708), and 1% penicillin and streptomycin. Cells were grown at 37° C., under atmospheric conditions without additional CO2. Cells were seeded into a 96-well tissue-culture treated plate (Greiner, Cat. No. 655180) at a density of 30,000 cell per well, and allowed to adhere for 16 hours before the media was removed, and cells were treated with compounds diluted into culture media at the indicated concentrations. After 1 hour of incubation in the presence of compound, cells were harvested to measure pERK levels using the lysis buffer supplied with the Homogenous Time Resolved Fluorescence pERK kit (HTRF, Cisbio Advance ERK phospho-T202/Y204, Cat. No. 64AERPEG). Lysates were transferred to a 384-well low-volume white plate (PerkinElmer, Cat. No. 6008280) and then treated with the detection reagents supplied by the HTRF kit, according to the “2-plate” protocol supplied by the manufacturer, and incubated for 4-hours at ambient temperature in darkness. Assay plates were read at two fluorescent wavelengths (665 nm and 620 nm) using an Envision plate reader (Perkin Elmer) and data was processed and fitted to a 4-parameter logistic model using Graphpad Prism 8.0 to calculate IC50 values.

[3] = tested on: Phospho-ERK (Thr202/Tyr204) in MiaPaCa-2 cells; experiment: pERK inhibition in MiaPaca-2 cell line (HTRF); format: cell-based; conditions: Homo sapiens, MIA PaCa-2, 1 hour incubation with compound
Method: MiaPaCa-2 cells (ATCC CRL-1420) were cultured in high glucose DMEM (Gibco 11965092) containing 10% fetal bovine serum (Gibco 1993708) and 1× Penicillin/Streptomycin, at 37° C. in a humid atmosphere of 5% CO2 in the air. Cells were plated in tissue-culture treated 96-well plates at a density of 10,000 cells/well and allowed to attach for 16 hours. The medium was then removed, and diluted compounds were added in a final concentration of 0.5% DMSO. After 1 hour of incubation, cells were lysed by the lysis buffer supplied with the Phospho-ERK (Thr202/Tyr204) cellular HTRF kit (Cisbio 64ERKPEH) and transferred to a 384-well low-volume white plate (PerkinElmer 6008280). The cell lysates were treated with the detection reagents supplied with the HTRF kit for 4 hours at ambient temperature in darkness. Two fluorescence intensities at the wavelengths (665 and 620 nm) were measured by the Envision plate reader (Perkin Elmer), and the data were processed and fitted to a 4-parameter logistic model for IC50 calculation (GraphPad Prism 9).

## N#CC1(C(=O)NCc2cnc(-c3ccc4c(c3)CCC4)nc2N2CCC(CN)C2)CC1 (stereo not shown) [Compound 104]
[1]
  EC50: 10 to 50 µM
[2]
  IC50: 1 to 10 µM
[3]
  IC50: 0.1 to 1 µM

## Cc1ccc(-c2ncc(CNC(=O)C3(C#N)CC3)c(N3CC[C@H](CN)C3)n2)cc1Cl [Compound 73]
[1]
  EC50: 1 to 10 µM
[2]
  IC50: 0.1 to 1 µM
[3]
  IC50: 0.1 to 1 µM

## Cc1ccc(-c2ncc(CNC(=O)C3(C#N)CCC3)c(N3CCC(CN)C3)n2)cc1Cl (stereo not shown) [Compound 87]
[1]
  EC50: 1 to 10 µM
[2]
  IC50: 1 to 10 µM
[3]
  IC50: 1 to 10 µM

## N#CC1(C(=O)NCc2cnc(-c3ccc(Cl)c(C(F)(F)F)c3)nc2N2CCC(CN)C2)CC1 (stereo not shown) [Compound 5, N-[[4-[3-(aminomethyl)pyrrolidin-1-yl]-2-[4-chloro-3-(trifluoromethyl)phenyl]pyrimidin-5-yl]methyl]-1-cyano-cyclopropanecarboxamide]
[1]
  EC50: 1 to 10 µM
[2]
  IC50: 1 to 10 µM
[3]
  IC50: 1 to 10 µM

## Cc1ccc(-c2ncc(CNC(=O)C3(F)CC3)c(N3CCNCC3)n2)cc1Cl [Compound 91]
[1]
  EC50: 1 to 10 µM
[2]
  IC50: 1 to 10 µM
[3]
  IC50: 1 to 10 µM

## Cc1ccc(-c2ncc(CNC(=O)C3(C#N)CC3)c(N3CC[C@@H](CN)C3)n2)cc1Cl [Compound 62]
[1]
  EC50: 1 to 10 µM
[2]
  IC50: 1 to 10 µM
[3]
  IC50: 0.1 to 1 µM

## Cc1ccc(-c2ncc(CNC(=O)C3(F)CC3)c(N3CCC(CN)C3)n2)cc1Cl (stereo not shown) [Compound 59]
[1]
  EC50: 1 to 10 µM
[2]
  IC50: 1 to 10 µM
[3]
  IC50: 1 to 10 µM

## N#CC1(C(=O)NCc2cnc(-c3ccc(Cl)c(C(F)F)c3)nc2N2CCC(CN)C2)CC1 (stereo not shown) [Compound 57]
[1]
  EC50: 10 to 50 µM
[2]
  IC50: 1 to 10 µM
[3]
  IC50: 1 to 10 µM

## Cc1ccc(-c2ncc(NS(=O)(=O)c3ccccc3)c(N3CCC(CN)C3)n2)cc1Cl (stereo not shown) [Compound 112]
[1]
  EC50: 1 to 10 µM
[2]
  IC50: 1 to 10 µM
[3]
  IC50: 1 to 10 µM

## Cc1ccc(-c2ncc(CNC(=O)C3(CO)CC3)c(N3CCC(CN)C3)n2)cc1Cl (stereo not shown) [Compound 105]
[1]
  EC50: 10 to 50 µM
[2]
  IC50: 1 to 10 µM
[3]
  IC50: 0.1 to 1 µM

## Cc1ccc(-c2ncc(CN3CCN(C)C3=O)c(N3CCC(CN)C3)n2)cc1Cl (stereo not shown) [Compound 120]
[1]
  EC50: 10 to 50 µM
[3]
  IC50: 1 to 10 µM

## N#CC1(C(=O)N2CC=C(c3cnc(-c4ccc(Cl)c(C(F)(F)F)c4)nc3OCCN)C2)CC1 [Compound 36]
[1]
  EC50: 1 to 10 µM
[3]
  IC50: 1 to 10 µM

## Cc1ccc(-c2ncc(CNC(=O)C3(F)CNC3)c(N3CCC(CN)C3)n2)cc1Cl (stereo not shown) [Compound 102]
[1]
  EC50: 1 to 10 µM
[3]
  IC50: 1 to 10 µM

## N#CC1(C(=O)NCc2cnc(-c3ccc(Cl)c(C(F)(F)F)c3)nc2N2CCC(F)(CN)C2)CC1 (stereo not shown) [Compound 47]
[1]
  EC50: 1 to 10 µM
[3]
  IC50: 1 to 10 µM

## N#CC1(C(=O)N2CC=C(c3cnc(-c4ccc(Cl)c(C(F)(F)F)c4)nc3N3CCC(CN)C3)C2)CC1 (stereo not shown) [Compound 29]
[1]
  EC50: 1 to 10 µM
[3]
  IC50: 1 to 10 µM

## Cc1ccc(-c2ncc(CNC(=O)C3(F)CC3)c(N3CC[C@H](CN)C3)n2)cc1Cl [Compound 93]
[1]
  EC50: 1 to 10 µM
[3]
  IC50: 1 to 10 µM

## N[C@@H]1CN(c2nc(-c3ccc(Cl)cc3NC(=O)C3(F)CC3)ncc2C2=CCNC2)C[C@H]1O [Compound 44]
[1]
  EC50: 1 to 10 µM
[3]
  IC50: 1 to 10 µM

## Cc1ccc(-c2ncc(CNC(=O)C3(O)CC3)c(N3CCC(CN)C3)n2)cc1Cl (stereo not shown) [Compound 96]
[1]
  EC50: 1 to 10 µM
[3]
  IC50: 1 to 10 µM

## N#CC1(C(=O)NCc2cnc(-c3ccc(C(F)(F)F)c(Cl)c3)nc2N2CCC(CN)C2)CC1 (stereo not shown) [Compound 75]
[1]
  EC50: 1 to 10 µM
[3]
  IC50: 1 to 10 µM

## N#CC1(C(=O)NCc2cnc(-c3ccc(Cl)c(C(F)(F)F)c3)nc2N2CCC[C@H]2CN)CC1 [Compound 55]
[1]
  EC50: 10 to 50 µM
[3]
  IC50: 1 to 10 µM

## Cc1ccc(-c2ncc(CNC(=O)C3(C#N)CC3)c(N3CCC(F)(CN)C3)n2)cc1Cl (stereo not shown) [Compound 63]
[1]
  EC50: 1 to 10 µM
[3]
  IC50: 0.1 to 1 µM

## N#CC1(C(=O)NCc2cnc(-c3ccc(Cl)c(C(F)(F)F)c3)nc2N2C[C@@H](N)[C@H](O)C2)CC1 [Compound 37]
[1]
  EC50: 10 to 50 µM
[3]
  IC50: 1 to 10 µM

## NCC1CCN(c2nc(-c3ccc(Cl)c(C(F)(F)F)c3)ncc2[N+](=O)[O-])C1 (stereo not shown) [Compound 56]
[1]
  EC50: 10 to 50 µM
[3]
  IC50: 10 to 50 µM

## NCC1CCN(c2nc(-c3ccc(C(F)(F)F)cc3F)ncc2CNC(=O)Nc2ccccc2)C1 (stereo not shown) [Compound 19, 1-[[4-[3-(aminomethyl)pyrrolidin-1-yl]-2-[2-fluoro-4-(trifluoromethyl)phenyl]pyrimidin-5-yl]methyl]-3-phenyl-urea]
[1]
  EC50: 1 to 10 µM
[3]
  IC50: 1 to 10 µM

## Cc1ccc(-c2ncc(CNS(=O)(=O)C3CC3)c(N3CCC(CN)C3)n2)cc1Cl (stereo not shown) [Compound 82]
[1]
  EC50: 1 to 10 µM
[3]
  IC50: 1 to 10 µM

## Cc1ccc(-c2ncc(CNC(=O)C3(F)CC3)c(N3CC[C@@H](CN)C3)n2)cc1Cl [Compound 72]
[2]
  IC50: 1 to 10 µM
[3]
  IC50: 1 to 10 µM

## NCC1CCN(c2nc(-c3ccc(Cl)c(C(F)(F)F)c3)ncc2OC2CCOC2)C1 (stereo not shown) [Compound 12]
[1]
  EC50: 1 to 10 µM
[3]
  IC50: 1 to 10 µM

## Cc1ccc(-c2ncc(CNC(=O)C3(N)CC3)c(N3CCC(CN)C3)n2)cc1Cl (stereo not shown) [Compound 81]
[1]
  EC50: 10 to 50 µM
[3]
  IC50: 1 to 10 µM

## NC[C@@H]1CCN(c2nc(-c3ccc(Cl)c(C(F)(F)F)c3)ncc2C2=CCNC2)C1 [Compound 2, [(3S)-1-[2-[4-chloro-3-(trifluoromethyl)phenyl]-5-(2,5-dihydro-1H-pyrrol-3-yl)pyrimidin-4-yl]pyrrolidin-3-yl]methanamine]
[1]
  EC50: 0.1 to 1 µM
[3]
  IC50: 1 to 10 µM

## Cc1ccc(-c2ncc(NC(=O)C3CC3)c(N3CCC(CN)C3)n2)cc1Cl (stereo not shown) [Compound 113]
[1]
  EC50: 10 to 50 µM
[3]
  IC50: 1 to 10 µM

## N[C@@H]1CN(c2nc(-c3ccc(Cl)c(C(F)(F)F)c3)ncc2C2=CCNC2)C[C@H]1O [Compound 40]
[1]
  EC50: 0.1 to 1 µM
[3]
  IC50: 1 to 10 µM

## N#CC1(C(=O)NCc2cnc(-c3ccc(Cl)c(C(F)(F)F)c3)nc2OC2CC(N)C2)CC1 (stereo not shown) [Compound 50]
[1]
  EC50: 1 to 10 µM
[3]
  IC50: 1 to 10 µM

## Cc1ccc(-c2ncc(CNC(=O)C3(C#N)CC3)c(N3CCC[C@H]3CN)n2)cc1Cl [Compound 68]
[1]
  EC50: 10 to 50 µM
[3]
  IC50: 1 to 10 µM

## N#CC1(C(=O)NCc2cnc(-c3ccc(Cl)c(C(F)(F)F)c3)nc2OC2CNC2)CC1 [Compound 39]
[1]
  EC50: 1 to 10 µM
[3]
  IC50: 1 to 10 µM

## Cc1ccc(-c2ncc(CNC(=O)C3(F)CC3)c(N3CCC(N)CC3)n2)cc1Cl [Compound 92]
[1]
  EC50: 1 to 10 µM
[3]
  IC50: 1 to 10 µM

## CN1CCN(c2nc(-c3ccc(Cl)c(C(F)(F)F)c3)ncc2CNC(=O)C2(C#N)CC2)CC1 [Compound 71]
[1]
  EC50: 1 to 10 µM
[3]
  IC50: 1 to 10 µM
